Converted amounts (≈) assume the structure as drawn. Read-outs that look alike come from different tables or passages of the source.
Columns and labels:
Mtb H37Ra^lux = test: microbe, parasite or virus in culture; type: cell-based, Mycobacterium tuberculosis; settings: for IC50: read-out: Mtb H37Ra^lux IC50; for MIC: read-out: Mtb H37Ra^lux IC90 (MIC)
M. avium subsp. avium = test: microbe, parasite or virus in culture; type: cell-based, Mycobacterium avium subsp. avium; settings: Mycobacterium avium, 168 h, read-out: IC50 M. avium subsp. avium
M. intracellulare = test: microbe, parasite or virus in culture; type: cell-based, Mycobacterium intracellulare; settings: Mycobacterium intracellulare, 168 h, read-out: IC50 M. intracellulare
M. abscessus = test: microbe, parasite or virus in culture; type: cell-based, Mycobacterium abscessus; settings: Mycobacteroides abscessus, 72 h, read-out: IC50 M. abscessus
[1] = test system: MRC-5 lung fibroblast cell line
in vitro = settings: human
[2] = Mycobacterium tuberculosis, H37RA, 168 h

Row | Compound | IC50 (Mtb H37Ra^lux; [2]) [µM] | MIC (Mtb H37Ra^lux; [2]) [µM] | further results
1 | Cc1nc2sccn2c1C(=O)N1CCN(CCn2cc(-c3ccccc3)nn2)CC1 [IT20, (6-Methylimidazo-[2,1-b]-thiazol-5-yl)(4-(2-(4-phenyl-1H-1,2,3-triazol-1-yl)-ethyl)-piperazin-1-yl)-methanone] | 20.6 | 54.9 (≈ 23.2 µg/mL) | 
2 | Cc1nc2sccn2c1C(=O)N1CCN(CCn2cc(C3CC3)nn2)CC1 [IT19, (4-(2-(4-Cyclopropyl-1H-1,2,3-triazol-1-yl)-ethyl)-piperazin-1-yl)(6-methylimidazo-[2,1-b]-thiazol-5-yl)-methanone] | > 128 | > 128 | 
3 | Cc1nc2sc3ccccc3n2c1C(=O)N1CCN(CCn2cc(C3CC3)nn2)CC1 [IT18, (4-(2-(4-Cyclopropyl-1H-1,2,3-triazol-1-yl)-ethyl)-piperazin-1-yl)(2-methylbenzo-[d]-imidazo-[2,1-b]-thiazol-3-yl)-methanone] | 29.1 | 63.8 (≈ 27.8 µg/mL) | 
4 | Cc1nc2sccn2c1C(=O)N1CCN(Cc2cn(-c3ccc([N+](=O)[O-])cc3)nn2)CC1 [IT25, (6-Methylimidazo-[2,1-b]-thiazol-5-yl)(4-((1-(4-nitrophenyl)-1H-1,2,3-triazol-4-yl)-methyl)-piperazin-1-yl)-methanone] | 23.1 | 51.4 (≈ 23.2 µg/mL) | 
5 | Cc1nc2sc3ccccc3n2c1C(=O)N1CCN(Cc2cn(-c3ccc([N+](=O)[O-])cc3)nn2)CC1 [IT10, (2-Methylbenzo-[d]-imidazo-[2,1-b]-thiazol-3-yl)(4-((1-(4-nitrophenyl)-1H-1,2,3-triazol-4-yl)-methyl)-piperazin-1-yl)-methanone] | 2.32 | 7.05 (≈ 3.54 µg/mL) | IC50 (M. avium subsp. avium): > 128 µM; IC50 (M. intracellulare): > 128 µM; IC50 (M. abscessus): > 128 µM; T.I. CC50/IC50 [1]: 55.2; CC50 (in vitro): > 128 µM
6 | CCCCc1cn(CCN2CCN(C(=O)c3c(C)nc4sc5ccccc5n34)CC2)nn1 [IT12, (4-(2-(4-Butyl-1H-1,2,3-triazol-1-yl)-ethyl)-piperazin-1-yl)(2-methylbenzo-[d]-imidazo-[2,1-b]-thiazol-3-yl)-methanone] | 43.7 | 62.8 (≈ 28.3 µg/mL) | 
7 | COc1cccc(-n2cc(CN3CCN(C(=O)c4c(C)nc5sccn45)CC3)nn2)c1 [IT27, (4-((1-(3-Methoxyphenyl)-1H-1,2,3-triazol-4-yl)-methyl)-piperazin-1-yl)(6-methylimidazo-[2,1-b]-thiazol-5-yl)-methanone] | 46 | 98.1 (≈ 42.9 µg/mL) | 
8 | Cc1nc2sc3ccccc3n2c1C(=O)N1CCN(CCn2cc(-c3ccccc3)nn2)CC1 [IT15, (2-Methylbenzo-[d]-imidazo-[2,1-b]-thiazol-3-yl)(4-(2-(4-phenyl-1H-1,2,3-triazol-1-yl)-ethyl)-piperazin-1-yl)-methanone] | 12.2 | 27.2 (≈ 12.8 µg/mL) | 
9 | CCCCc1cn(CCN2CCN(C(=O)c3c(C)nc4sccn34)CC2)nn1 [IT01, (4-(2-(4-Butyl-1H-1,2,3-triazol-1-yl)-ethyl)-piperazin-1-yl)(6-methylimidazo-[2,1-b]-thiazol-5-yl)-methanone] | 6.12 | 52 (≈ 20.9 µg/mL) | 
10 | COc1cccc(-n2cc(CN3CCN(C(=O)c4c(C)nc5sc6ccccc6n45)CC3)nn2)c1 [IT07, (4-((1-(3-Methoxyphenyl)-1H-1,2,3-triazol-4-yl)-methyl)-piperazin-1-yl)(2-methylbenzo-[d]-imidazo-[2,1-b]-thiazol-3-yl)-methanone] | 7.27 | 15.4 (≈ 7.49 µg/mL) | 
11 | Cc1nc2sccn2c1C(=O)N1CCN(Cc2cn(-c3cccc([N+](=O)[O-])c3)nn2)CC1 [IT23, (6-Methylimidazo-[2,1-b]-thiazol-5-yl)(4-((1-(3-nitrophenyl)-1H-1,2,3-triazol-4-yl)-methyl)-piperazin-1-yl)-methanone] | 43.8 | 84.8 (≈ 38.4 µg/mL) | 
12 | Cc1nc2sc3ccccc3n2c1C(=O)N1CCN(Cc2cn(-c3cccc(Cl)c3)nn2)CC1 [IT11, (4-((1-(3-Chlorophenyl)-1H-1,2,3-triazol-4-yl)-methyl)-piperazin-1-yl)(2-methylbenzo-[d]-imidazo-[2,1-b]-thiazol-3-yl)-methanone] | 3.86 | 14.5 (≈ 7.11 µg/mL) | IC50 (M. avium subsp. avium): 100 µM; IC50 (M. intracellulare): 98.8 µM; IC50 (M. abscessus): > 128 µM; T.I. CC50/IC50 [1]: 7.6; CC50 (in vitro): 29.4 µM
13 | Cc1ccc(-n2cc(CN3CCN(C(=O)c4c(C)nc5sccn45)CC3)nn2)cc1C [IT24, (4-((1-(3,4-Dimethylphenyl)-1H-1,2,3-triazol-4-yl)-methyl)-piperazin-1-yl)(6-methylimidazo-[2,1-b]-thiazol-5-yl)-methanone] | 19.8 | 48.8 (≈ 21.2 µg/mL) | 
14 | Cc1nc2sccn2c1C(=O)N1CCN(Cc2cn(-c3ccc(F)c(Cl)c3)nn2)CC1 [IT22, (4-((1-(3-Chloro-4-fluorophenyl)-1H-1,2,3-triazol-4-yl)-methyl)-piperazin-1-yl)(6-methylimidazo-[2,1-b]-thiazol-5-yl)-methanone] | 5.28 | 57.8 (≈ 26.6 µg/mL) | 
15 | NNC(=O)c1ccncc1 [INH, isoniazid, reference compound] | 0.04 | 0.09 (≈ 0.0123 µg/mL) | 
16 | Cc1nc2sccn2c1C(=O)N1CCN(CCn2cc(COc3ccc(Cl)cn3)nn2)CC1 [IT05, (4-(2-(4-(((5-Chloropyridin-2-yl)-oxy)-methyl)-1H-1,2,3-triazol-1-yl)ethyl)-piperazin-1-yl)(6-methylimidazo-[2,1-b]-thiazol-5-yl)-methanone] | 49.6 | > 128 | 
17 | Cc1nc2sccn2c1C(=O)N1CCN(Cc2cn(-c3ccc(Br)cc3)nn2)CC1 [IT21, (4-((1-(4-Bromophenyl)-1H-1,2,3-triazol-4-yl)-methyl)-piperazin-1-yl)(6-methylimidazo-[2,1-b]-thiazol-5-yl)-methanone] | 20.7 | 53 (≈ 25.8 µg/mL) | 
18 | (4-(2-(4-((5-Chloropyridin-2-yl)oxy)-1H-1,2,3-triazol-1-yl)-ethyl)-piperazin-1-yl)(2-methylbenzo-[d]-imidazo-[2,1-b]-thiazol-3-yl)-methanone [IT17] |  |  | Mtb H37Ra^lux IC90 (MIC) (Mtb H37Ra^lux): 115.57 µM; IC50 (Mtb H37Ra^lux): 19.7 µM
19 | Cc1nc2sc3ccccc3n2c1C(=O)N1CCN(Cc2cn(-c3ccc(Cl)cc3Cl)nn2)CC1 [IT06, (4-((1-(2,4-Dichlorophenyl)-1H-1,2,3-triazol-4-yl)-methyl)-piperazin-1-yl)(2-methylbenzo-[d]-imidazo-[2,1-b]-thiazol-3-yl)-methanone] | 2.03 | 15.2 (≈ 8.01 µg/mL) | 
20 | Cc1nc2sccn2c1C(=O)N1CCN(Cc2cn(-c3ccccc3Cl)nn2)CC1 [IT26, (4-((1-(2-Chlorophenyl)-1H-1,2,3-triazol-4-yl)-methyl)-piperazin-1-yl)(6-methylimidazo-[2,1-b]-thiazol-5-yl)-methanone] | 30.2 | 62.1 (≈ 27.5 µg/mL) | 
21 | CCCCCCCCCc1cn(CCN2CCN(C(=O)c3c(C)nc4sc5ccccc5n34)CC2)nn1 [IT14, (2-methylbenzo-[d]-imidazo-[2,1-b]-thiazol-3-yl)(4-(2-(4-nonyl-1H-1,2,3-triazol-1-yl)-ethyl)-piperazin-1-yl)-methanone] | 13.1 | 28 (≈ 14.6 µg/mL) | 
22 | CC/C(=C(\c1ccccc1)c1ccc(OCCN(C)C)cc1)c1ccccc1 [Tamoxifen, reference compound] |  |  | CC50 (in vitro): 12.4 µM
